# Patent publication US9975903B2, “Condensed heterocyclic compound” (Takeda Pharmaceutical Company Limited, priority 2014, dated 2018)
# Structures can show the parent of a compound that is named as a salt.
# Target: T1, Human recombinant enteropeptidase (Homo sapiens, UniProt P98073)
# T1 construct: purchased ITSI-Biosciences LLC #REN-260
# Experiment: Human enteropeptidase inhibitory activity (Test Example 1)
# Type: biochemical
# Conditions: 3.3 μM test compound; inhibition rate from fluorescence intensity at 2 hours after the start of the reaction
# Procedure: Human recombinant enteropeptidase (#REN-260, ITSI-Biosciences LLC) was diluted with an assay buffer (50 mM Tricine, pH 8.0, 0.01 (w/v) %, Tween 20, 10 mM CaCl2) to prepare a 24 mU/mL enzyme solution. Subsequently, 5FAM-Abu-Gly-Asp-Asp-Asp-Lys-Ile-Val-Gly-Gly-Lys(CPQ2)-Lys-Lys-NH2 (SEQ ID NO: 1, purity: 97.2%, CPC Scientific Inc.) was diluted with the assay buffer to prepare a 2.1 μM substrate solution. A test compound is dissolved in DMSO into a 1 mM solution, and the solution was diluted by 100-fold with the assay buffer to give a compound solution. To a 384-well black plate (#784076, Greiner Bio-One), 5 μL of the compound solution and 5 μL of the substrate solution were added and mixed, and 5 μL of the enzyme solution was then added to the mixture, followed by mixing to start the reaction. The fluorescence intensity was measured with a fluorescence plate reader EnVision (The Perkin-Elmer Corp.) at an excitation wavelength of 485 nm and a fluorescence wavelength of 535 nm. The same reaction as above except that the test compound was not contained was performed (test compound non-addition group). Furthermore, the same reaction as above except that the test compound and the enzyme were not contained was performed (control group). The inhibition rate was calculated using the fluorescence intensity at 2 hours after the start of the reaction by the following expression: Inhibition rate (%)=(1−((fluorescence intensity of test compound addition group)−(fluorescence intensity of control group))/((fluorescence intensity of test compound non-addition group)−(fluorescence intensity of control group)))×100
# T1 sequence (P98073 whole entry): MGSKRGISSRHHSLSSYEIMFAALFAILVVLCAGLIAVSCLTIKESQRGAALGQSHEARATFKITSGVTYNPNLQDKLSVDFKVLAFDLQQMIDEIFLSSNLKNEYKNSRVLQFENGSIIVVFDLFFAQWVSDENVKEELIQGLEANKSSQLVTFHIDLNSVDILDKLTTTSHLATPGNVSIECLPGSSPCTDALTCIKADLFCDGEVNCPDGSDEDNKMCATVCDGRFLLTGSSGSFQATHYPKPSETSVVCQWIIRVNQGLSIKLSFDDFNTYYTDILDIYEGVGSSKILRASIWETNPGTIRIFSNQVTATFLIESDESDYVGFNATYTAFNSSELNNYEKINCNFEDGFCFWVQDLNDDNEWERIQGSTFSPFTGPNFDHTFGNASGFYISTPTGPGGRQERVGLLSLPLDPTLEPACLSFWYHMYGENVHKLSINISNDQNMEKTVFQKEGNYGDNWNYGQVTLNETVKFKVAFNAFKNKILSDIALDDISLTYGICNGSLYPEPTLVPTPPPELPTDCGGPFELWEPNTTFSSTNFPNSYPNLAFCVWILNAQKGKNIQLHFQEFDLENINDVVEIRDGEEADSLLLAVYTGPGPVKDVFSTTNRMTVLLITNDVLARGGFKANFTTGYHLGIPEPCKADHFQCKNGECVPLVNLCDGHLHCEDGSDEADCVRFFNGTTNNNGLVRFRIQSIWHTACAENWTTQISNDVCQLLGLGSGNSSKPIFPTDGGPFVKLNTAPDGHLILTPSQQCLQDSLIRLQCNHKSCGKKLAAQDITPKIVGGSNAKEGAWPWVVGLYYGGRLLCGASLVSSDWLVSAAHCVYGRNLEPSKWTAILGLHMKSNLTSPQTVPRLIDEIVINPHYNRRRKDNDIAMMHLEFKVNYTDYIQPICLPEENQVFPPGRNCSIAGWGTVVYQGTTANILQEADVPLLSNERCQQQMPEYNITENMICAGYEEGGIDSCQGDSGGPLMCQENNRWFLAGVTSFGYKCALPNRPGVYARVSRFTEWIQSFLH
row,3.3 μM Inhibition [%],Structure (SMILES)
1,101,"N=C(N)Nc1ccc2c(c1)OCCCOc1cc(CCC(=O)N[C@@H](CC(=O)O)C(=O)O)ccc1OC2=O [Example 51, N-(3-(3-carbamimidamido-15-oxo-7,8-dihydro-6H,15H-dibenzo[b,f][1,4,8]trioxacyclo-undecin-11-yl)propanoyl) aspartic acid]"

# Same assay, conditions: 3.3 μM test compound; inhibition rate from fluorescence intensity at 2 hours after the start of the reaction; read-out: 3.3 μM Inhibition
row,Structure (SMILES),inhibition at 3.3 µM [%]
1,"N=C(N)Nc1ccc2c(c1)CCCCc1cc3c(cc1OC2=O)OC[C@H]3CC(=O)NCCS(=O)(=O)O [Example 35, 2-((((10S)-3-carbamimidamido-15-oxo-5,7,8,10,11,15-hexahydro-6H-12,14-dioxabenzo[5,6]cyclodeca[1,2-f]inden-10-yl)acetyl)amino)ethane-sulfonic acid]",90
2,"N=C(N)Nc1ccc2c(c1)CCCCc1c(cc3c(c1C(=O)NCCS(=O)(=O)O)CCO3)OC2=O [Example 36, 2-(((3-carbamimidamido-15-oxo-5,7,8,10,11,15-hexahydro-6H-12,14-dioxabenzo[5,6]cyclodeca[1,2-f]inden-9-yl)carbonyl)amino)ethane-sulfonic acid]",94
3,"N=C(N)Nc1ccc2c(c1)CCCCc1cc3c(cc1OC2=O)OC[C@H]3CC(=O)N[C@@H](CC(=O)O)C(=O)O [Example 39, N-(((10S)-3-carbamimidamido-15-oxo-5,7,8,10,11,15-hexahydro-6H-12, 14-dioxabenzo[5,6]cyclodeca[1,2-f]inden-10-yl)acetyl)-L-aspartic acid]",98
4,"N=C(N)Nc1ccc2c(c1)OCCCCOc1c(CCC(=O)N[C@@H](CC(=O)O)C(=O)O)cccc1OC2=O [Example 42, N-(3-(3-Carbamimidamido-16-oxo-6,7,8,9-tetrahydro-16H-dibenzo[b,f][1,4,8]trioxacyclododecin-11-yl)propanoyl)aspartic acid trifluoroacetate]",100
5,"N=C(N)Nc1ccc2c(c1)OCCCOc1c(CCC(=O)N[C@@H](CC(=O)O)C(=O)O)cccc1OC2=O [Example 43, N-(3-(3-Carbamimidamido-15-oxo-7,8-dihydro-6H, 15H-dibenzo[b,f][1,4,8]trioxacycloundecin-10-yl)propanoyl)aspartic acid trifluoroacetate]",101
6,"N=C(N)Nc1ccc2c(c1)CCCCOc1c(CCC(=O)N[C@@H](CC(=O)O)C(=O)O)cccc1OC2=O [Example 44, N-(3-(11-Carbamimidamido-14-oxo-7,8,9,14-tetrahydro-6H-dibenzo[b,f][1,4]dioxacycloundecin-4-yl)propanoyl)-L-aspartic acid trifluoroacetate]",96
7,"N=C(N)Nc1ccc2c(c1)CCCOc1c(CCC(=O)N[C@@H](CC(=O)O)C(=O)O)cccc1OC2=O [Example 47, N-(3-(10-Carbamimidamido-13-oxo-6,7,8,13-tetrahydrodibenzo[b,f][1,4]dioxecin-4-yl)propanoyl)aspartic acid]",101
8,"N=C(N)Nc1ccc2c(c1)CCc1nc(CCC(=O)N[C@@H](CC(=O)O)C(=O)O)ccc1OC2=O [Example 48, N-(3-(9-Carbamimidamido-6-oxo-11,12-dihydro-6H-[2]benzoxocino[4,3-b]pyridin-2-yl)propanoyl)-L-aspartic acid trifluoroacetate]",42
9,"N=C(N)Nc1ccc2c(c1)CCCOc1cc(CCC(=O)N[C@@H](CC(=O)O)C(=O)O)ccc1OC2=O [Example 49, N-(3-(10-carbamimidamido-13-oxo-6,7,8,13-tetrahydro-dibenzo[b,f] [1,4]dioxecin-3-yl)propanoyl)-aspartic acid]",100
10,"N=C(N)Nc1ccc2c(c1)OCCOc1c(CCC(=O)N[C@@H](CC(=O)O)C(=O)O)cccc1OC2=O [Example 52, N-(3-(3-Carbamimidamido-14-oxo-6,7-dihydro-14H-dibenzo[b,h][1,4,7]trioxecin-9-yl)propanoyl)aspartic acid trifluoroacetate]",101

# Other lines, results leading:
row,inhibition at 3.3 µM [%],Structure (SMILES)
1,101,"N=C(N)Nc1ccc2c(c1)CCCc1c(cccc1C(=O)N[C@@H](CC(=O)O)C(=O)O)OC2=O [Example 30, N-((9-Carbamimidamido-6-oxo-6,11,12,13-tetrahydrodibenzo[b,g]oxonin-1-yl)carbonyl)-L-aspartic acid trifluoroacetate]"
2,101,"N=C(N)Nc1ccc2c(c1)CCCCc1c(OCC(=O)N[C@@H](CC(=O)O)C(=O)O)cccc1OC2=O [Example 31, N-(((3-carbamimidamido-14-oxo-5,7,8,14-tetrahydro-6H-dibenzo[b,h]oxecin-9-yl)oxy)acetyl)-L-aspartic acid]"
3,71,"N=C(N)Nc1ccc2c(c1)CCCCc1c(CC(=O)N[C@@H](CC(=O)O)C(=O)O)cccc1OC2=O [Example 32, N-((3-carbamimidamido-14-oxo-5,7,8,14-tetrahydro-6H-dibenzo[b,h]oxecin-9-yl)acetyl)-L-aspartic acid]"
4,98,"N=C(N)Nc1ccc2c(c1)CCCCc1c(cccc1C(=O)NCCS(=O)(=O)O)OC2=O [Example 33, 2-(((3-carbamimidamido-14-oxo-5,7,8,14-tetrahydro-6H-dibenzo[b,h]oxecin-9-yl)carbonyl)amino) ethanesulfonic acid]"
5,75,"N=C(N)Nc1ccc2c(c1)CCCCc1c(cccc1C(=O)O)OC2=O [Example 34, 3-carbamimidamido-14-oxo-6,7,8,14-tetrahydro-6H-dibenzo[b, h]oxecine-9-carboxylic acid]"
6,101,"N=C(N)Nc1ccc2c(c1)CCCCc1c(cccc1C(=O)N[C@@H](CC(=O)O)C(=O)O)OC2=O [Example 37, N-((3-Carbamimidamido-14-oxo-5,7,8,14-tetrahydro-6H-dibenzo[b,h]oxecin-9-yl)carbonyl)-L-aspartic acid]"
7,100,"N=C(N)Nc1ccc2c(c1)CCCCc1c(cc3c(c1C(=O)N[C@@H](CC(=O)O)C(=O)O)CCO3)OC2=O [Example 40, N-((3-Carbamimidamido-15-oxo-5,7,8,10,11,15-hexahydro-6H-12,14-dioxabenzo[5,6]cyclodeca[1,2-f]inden-9-yl)carbonyl)-L-aspartic acid]"
8,71,"N=C(N)Nc1ccc2c(c1)CCCCc1c(CCC(=O)N[C@@H](CC(=O)O)C(=O)O)ccc(F)c1OC2=O [Example 41, N-(3-(3-carbamimidamido-12-fluoro-14-oxo-5,7,8,14-tetrahydro-6H-dibenzo[b,h]oxacin-9-yl)propanoyl)-L-aspartic acid]"
9,100,"N=C(N)Nc1ccc2c(c1)OCCCCOc1cc(CCC(=O)NC(CC(=O)O)C(=O)O)ccc1OC2=O (stereo not shown) [Example 46, N-(3-(3-carbamimidamido-16-oxo-6,7,8,9-tetrahydro-16H-dibenzo[b,f][1,4,8]trioxacyclo-dodecin-12-yl)propanoyl) aspartic acid]"
10,101,"N=C(N)Nc1ccc2c(c1)OCCc1cc(CCC(=O)N[C@@H](CC(=O)O)C(=O)O)ccc1OC2=O [Example 50, N-(3-(9-Carbamimidamido-6-oxo-12,13-dihydro-6H-dibenzo[b,f][1,5]dioxonin-2-yl)propanoyl)-L-aspartic acid trifluoroacetate]"
11,101,"N=C(N)Nc1ccc2c(c1)OCCOc1cc(CCC(=O)N[C@@H](CC(=O)O)C(=O)O)ccc1OC2=O [Example 53, N-(3-(3-carbamimidamido-14-oxo-6,7-dihydro-14H-dibenzo[b,h][1,4,7]trioxecin-10-yl)propanoyl) aspartic acid]"
